US4027039A (priority 1975, dated 1977)
Where “and” joins values, the source holds several entries; their conditions need not be identical. Identical values can stand only once. Like-named read-outs stand apart in the source and are kept apart here.

Experiments:
Influenza PR 8 virus = test: Influenza PR 8 in mice, oral; schedule by table; late read day 6 (Table 37), 7 (33, 36), 8 (32, 35, 47), 10 (38); control fraction 18/20 (Table 32), 19/20 (Table 35), else 100%; format: in vivo, mouse
[1] = system: Influenza B Massachusetts virus; test: Influenza B Mass. in mice, oral; late read day 5 (Table 39), 7 (Table 40), 11 (Tables 61, 65); control fraction 16/20 (Table 61), else 100%; format: in vivo, mouse
Experimental: A portion of a commercially available sample of amantadine was recrystallized from isopropanol. The activity of the material against Influenza B Mass. was tested for the sample as obtained, the recrystallized portion, and the mother liquor obtained from recrystallizing the portion.

Herpes virus [2] = system: Herpes virus
viral infections = test: Antiviral screening in animals, general statements; settings: mouse, in vivo
Herpes virus [3] = test: Herpes virus in chicken eggs, single dose 24 hours pre-infection; format: in vivo, chick embryo
[4] = system: Influenza, Ann Arbor virus; test: Influenza Ann Arbor in mice, oral; schedule by table; late read day 5 (Tables 15, 25, 29, 30), 6 (18, 20, 22, 23, 26, 27, 28, 54), 7 (14, 19, 21, 24, 53, 56), 8 (16, 17, 51), 9 (11, 55); format: in vivo, mouse
Vaccinia IHD virus = format: in vivo, mouse
[5] = system: Influenza, Ann Arbor virus; test: Influenza Ann Arbor in mice, subcutaneous; late read day 9 (Table 11), 7 (Tables 12, 14), 5 (Table 13); format: in vivo, mouse

NNC(=O)c1ccncc1 [Isoniazid, isoniazid, reference compound]
5: No. animals surviving after 6-10 days (Influenza PR 8 virus; total dose 5 μg) | No. animals surviving after 5 days (Table 61: 11 days) ([1]; total dose .005 μg (5 ng))
30%: maximum protective effect, treated animals survived (viral infections)
3: No. animals surviving after 5 days (Table 61: 11 days) ([1]; total dose .000005 μg (5 pg)) | No. animals surviving after 5 days (Table 61: 11 days) ([1]; total dose .0005 μg (500 pg)) | No. animals surviving after 5 days (Table 61: 11 days) ([1]; total dose .05 μg (50 ng)) | No. animals surviving after 5 days (Table 61: 11 days) ([1]; total dose .5 μg (500 ng))
2: No. animals surviving after 5 days (Table 61: 11 days) ([1]; total dose .00005 μg (50 pg)) | No. animals surviving when 100% (Table 61: 16/20) of controls are dead ([1]; total dose .0005 μg (500 pg))
active: activity in words (viral infections)
1: No. animals surviving after 6-10 days (Influenza PR 8 virus; total dose .0000005 μg) | No. animals surviving when 100% (or given fraction) of controls are dead (Influenza PR 8 virus; total dose .000005 μg) | No. animals surviving after 6-10 days (Influenza PR 8 virus; total dose .005 μg) | No. animals surviving when 100% (or given fraction) of controls are dead (Influenza PR 8 virus; total dose .005 μg) | Survivors (Influenza PR 8 virus; total dose .005 μg) | Survivors (Influenza PR 8 virus; total dose .05 μg) | No. animals surviving when 100% (or given fraction) of controls are dead (Influenza PR 8 virus; total dose .5 μg) | Survivors (Influenza PR 8 virus; total dose .5 μg) | No. animals surviving when 100% (Table 61: 16/20) of controls are dead ([1]; total dose .00005 μg (50 pg)) | No. animals surviving when 100% (Table 61: 16/20) of controls are dead ([1]; total dose .005 μg (5 ng)) | No. animals surviving when 100% (Table 61: 16/20) of controls are dead ([1]; total dose .05 μg (50 ng)) | No. animals surviving when 100% (or given fraction) of controls are dead (Herpes virus [2]; total dose .0000005 μg) | Survivors (Herpes virus [2]; total dose .0000005 μg) | No. animals surviving when 100% (or given fraction) of controls are dead (Herpes virus [2]; total dose .005 μg) | No. animals surviving when 100% (or given fraction) of controls are dead (Herpes virus [2]; total dose .05 μg) | Survivors (Herpes virus [2]; total dose .05 μg)
0: No. animals surviving when 100% (or given fraction) of controls are dead (Influenza PR 8 virus; total dose .0000005 μg) | Survivors (Influenza PR 8 virus; total dose .0000005 μg) | Survivors (Influenza PR 8 virus; total dose .000005 μg) | No. animals surviving after 6-10 days (Influenza PR 8 virus; total dose .00005 μg) | No. animals surviving when 100% (or given fraction) of controls are dead (Influenza PR 8 virus; total dose .00005 μg) | Survivors (Influenza PR 8 virus; total dose .00005 μg) | No. animals surviving after 6-10 days (Influenza PR 8 virus; total dose .0005 μg) | No. animals surviving when 100% (or given fraction) of controls are dead (Influenza PR 8 virus; total dose .0005 μg) | Survivors (Influenza PR 8 virus; total dose .0005 μg) | No. animals surviving when 100% (or given fraction) of controls are dead (Influenza PR 8 virus; total dose .05 μg) | No. animals surviving when 100% (Table 61: 16/20) of controls are dead ([1]; total dose .000005 μg (5 pg)) | Survivors ([1]; total dose .000005 μg (5 pg)) | Survivors ([1]; total dose .00005 μg (50 pg)) | Survivors ([1]; total dose .0005 μg (500 pg)) | Survivors ([1]; total dose .005 μg (5 ng)) | Survivors ([1]; total dose .05 μg (50 ng)) | No. animals surviving when 100% (Table 61: 16/20) of controls are dead ([1]; total dose .5 μg (500 ng)) | Survivors ([1]; total dose .5 μg (500 ng))
4: No. animals surviving after 6-9 days (Herpes virus [2]; total dose .0000005 μg) | No. animals surviving after 6-9 days (Herpes virus [2]; total dose .05 μg)

N=C(N)NN [aminoguanidine, bicarbonate]
very pronounced protective effects: activity in words (viral infections)
1: Survivors ([1]; total dose 40 ng) | Survivors ([1]; total dose 400 ng) | Survivors ([1]; total dose 4 μg)
0: Survivors ([1]; total dose 40 pg) | Survivors ([1]; total dose 4 ng)
2: Survivors ([1]; total dose 400 pg)

NN [hydrazine]
< .01: Statistical Significance of Tail Lesions (Vaccinia IHD virus; 10 ng, day 6) | Statistical Significance of Tail Lesions (Vaccinia IHD virus; 10 ng, day 11) | Statistical Significance of Tail Lesions (Vaccinia IHD virus; 10 ng, day 12) | Statistical Significance of Tail Lesions (Vaccinia IHD virus; 10 ng, day 14) | Statistical Significance of Tail Lesions (Vaccinia IHD virus; 10 ng, day 17) | Statistical Significance of Tail Lesions (Vaccinia IHD virus; 10 ng, day 21) | Statistical Significance of Tail Lesions (Vaccinia IHD virus; 1 μg, day 10) | Statistical Significance of Tail Lesions (Vaccinia IHD virus; 1 μg, day 11) | Statistical Significance of Tail Lesions (Vaccinia IHD virus; 1 μg, day 12) | Statistical Significance of Tail Lesions (Vaccinia IHD virus; 1 μg, day 14) | Statistical Significance of Tail Lesions (Vaccinia IHD virus; 1 μg, day 17) | Statistical Significance of Tail Lesions (Vaccinia IHD virus; 1 μg, day 21) | Statistical Significance of Tail Lesions (Vaccinia IHD virus; 10 [μg], day 11) | Statistical Significance of Tail Lesions (Vaccinia IHD virus; 10 [μg], day 12) | Statistical Significance of Tail Lesions (Vaccinia IHD virus; 10 [μg], day 14) | Statistical Significance of Tail Lesions (Vaccinia IHD virus; 10 [μg], day 17) | Statistical Significance of Tail Lesions (Vaccinia IHD virus; 10 [μg], day 21) | Statistical Significance of Tail Lesions (Vaccinia IHD virus; 100 [ng], day 6) | Statistical Significance of Tail Lesions (Vaccinia IHD virus; 100 [ng], day 7) | Statistical Significance of Tail Lesions (Vaccinia IHD virus; 100 [ng], day 10) | Statistical Significance of Tail Lesions (Vaccinia IHD virus; 100 [ng], day 11) | Statistical Significance of Tail Lesions (Vaccinia IHD virus; 100 [ng], day 12) | Statistical Significance of Tail Lesions (Vaccinia IHD virus; 100 [ng], day 14) | Statistical Significance of Tail Lesions (Vaccinia IHD virus; 100 [ng], day 17) | Statistical Significance of Tail Lesions (Vaccinia IHD virus; 100 [ng], day 21)
11: Total deaths, 4th day (Herpes virus [3]; 20 μg) | Total deaths, 4th day (Herpes virus [3]; .005 μg)
6: Deaths on day 2 (Herpes virus [3]; .0005 μg) | No. animals surviving after 6-9 days (Herpes virus [2]; total dose .005 μg)
3: Deaths on day 1 (Herpes virus [3]; 2 μg) | Deaths on day 1 (Herpes virus [3]; 20 μg) | Deaths on day 3 (Herpes virus [3]; .05 μg) | Total no. living longer than controls (Herpes virus [3]; all doses)
1: Deaths on day 3 (Herpes virus [3]; 2 μg) | Deaths on day 4 (Herpes virus [3]; 2 μg) | No. hatched (Herpes virus [3]; 2 μg) | No. living longer than controls (Herpes virus [3]; 2 μg) | No. hatched (Herpes virus [3]; 20 μg) | No. living longer than controls (Herpes virus [3]; 20 μg) | No. living longer than controls (Herpes virus [3]; .00005 μg) | Deaths on day 4 (Herpes virus [3]; .5 μg) | No. animals surviving when 100% (or given fraction) of controls are dead (Herpes virus [2]; total dose .05 μg) | No. animals surviving when 100% (or given fraction) of controls are dead (Herpes virus [2]; total dose .5 μg)
< .05: Statistical Significance of Tail Lesions (Vaccinia IHD virus; 10 ng, day 7) | Statistical Significance of Tail Lesions (Vaccinia IHD virus; 10 [μg], day 10) | Statistical Significance of Tail Lesions (Vaccinia IHD virus; 100 [ng], day 5) | Statistical Significance of Tail Lesions (Vaccinia IHD virus; 100 [ng], day 8)
7: Deaths on day 2 (Herpes virus [3]; .005 μg)
3 and 5: No. animals surviving after 6-9 days (Herpes virus [2]; total dose .05 μg)
5: Deaths on day 3 (Herpes virus [3]; .00005 μg) | Deaths on day 2 (Herpes virus [3]; .05 μg) | Deaths on day 3 (Herpes virus [3]; .5 μg)
much less significant activity: activity in words ([4]; oral)
0: No. dying 5-22 day (Herpes virus [3]; 2 μg) | No. dying 5-22 day (Herpes virus [3]; 20 μg) | No. dying 5-22 day (Herpes virus [3]; .00005 μg) | No. dying 5-22 day (Herpes virus [3]; .0005 μg) | No. living longer than controls (Herpes virus [3]; .0005 μg) | No. dying 5-22 day (Herpes virus [3]; .005 μg) | No. living longer than controls (Herpes virus [3]; .005 μg) | No. dying 5-22 day (Herpes virus [3]; .05 μg) | No. living longer than controls (Herpes virus [3]; .05 μg) | No. dying 5-22 day (Herpes virus [3]; .5 μg) | No. living longer than controls (Herpes virus [3]; .5 μg)
4: Deaths on day 2 (Herpes virus [3]; 2 μg) | Deaths on day 3 (Herpes virus [3]; 20 μg) | Deaths on day 3 (Herpes virus [3]; .0005 μg) | Deaths on day 3 (Herpes virus [3]; .005 μg)
12: Total deaths, 4th day (Herpes virus [3]; .0005 μg)
6 and 5: No. animals surviving after 6-9 days (Herpes virus [2]; total dose .0005 μg)
9: Total deaths, 4th day (Herpes virus [3]; 2 μg) | Total deaths, 4th day (Herpes virus [3]; .00005 μg)
10: Total deaths, 4th day (Herpes virus [3]; .05 μg) | Total deaths, 4th day (Herpes virus [3]; .5 μg)

N-hydroxyphthalamide
active: activity in words (viral infections)

O=C(C=NO)c1ccccc1 [phenylglyoxaloxime]
active: activity in words (viral infections)

N=C(N)NN [aminoguanidine]
most active: activity in words ([4]; oral)
8: No. animals surviving after 5-7 days ([4]; total dose 3 μg) | No. animals surviving after 5-7 days ([4]; total dose 30 μg) | No. animals surviving after 7 days ([5]; total dose .0003 μg) | No. animals surviving after 7 days ([5]; total dose .003 μg)
2: Survivors ([4]; total dose 30 ng) | Survivors ([5]; total dose 3 μg) | Survivors ([5]; total dose 30 μg)
3: Survivors ([4]; total dose 3 μg)
6: No. animals surviving after 5-7 days ([4]; total dose 300 pg) | No. animals surviving after 7 days ([5]; total dose 3 μg)
0: Survivors ([5]; total dose .003 μg)
1: Survivors ([4]; total dose 300 pg) | Survivors ([4]; total dose 3 ng) | Survivors ([5]; total dose .03 μg) | Survivors ([5]; total dose .3 μg)
4: Survivors ([4]; total dose 300 ng)
5: Survivors ([5]; total dose .0003 μg)
50%: treated animals survived ([4]; oral, high dose) | survival ([5]; subcutaneous, only at one dose level)
